Reference: US20260355170A1, “Treatment of Endometrial Cancer with MDM2 Inhibitors” (Kartos Therapeutics, Inc., priority 2023, published 2026)

Tests used:
Assay type in all cases: cell-based
[1] = system: HEC-265 cells; assay: CellTiter-Glo viability/proliferation assay, growth of HEC-265 TP53 WT endometrial cancer cells; conditions: 144 h, 6-day incubation
Method: (§1) The effect of MDM2 inhibitor compound of Formula (I) on growth of a p53 wild-type (TP53 WT) endometrial cancer cell line was assessed in HEC-151 cells, HEC-265 cells, and HEC-108 cells as described below.
(§2) Test and Control Article Preparation: A stock solution for Formula (I) was created by dissolving the compound in 100% DMSO to a concentration of 10 mM which was stored at −20 °C. Working solutions ranging from 0.04 μM to 10 μM to generate a 10-point dilution series were prepared by diluting the stock solution in culture media specific to each cell line (cell line assay media). Final concentrations of DMSO were kept constant at 0.1% to maintain cell viability. […]
(§3) Treatment of Cells for Proliferation Assay: Cells were counted (Countess III automated cell counter, Thermo Fisher Scientific) using a cell viability imaging kit (Thermo Fisher Scientific; cat #R37609). […]
(§4) On Day 0 prior treatment, and after the treatment period, the number of viable cells were measured using the CellTiter-Glo® Luminescent Cell Viability Assay (Promega) according to manufacturer instructions. The luminescence for each treatment condition was normalized to the DMSO control as a percent of control. Dose response curves were generated and EC50s and EC90s were determined based on percent of DMSO control. […]

[2] = system: HEC-108 cells; assay: CellTiter-Glo viability/proliferation assay, growth of HEC-108 TP53 WT endometrial cancer cells
Method: as §1, §2, §3, §4

[3] = system: p53 wild-type (TP53 WT) endometrial cancer cell line; assay: Inhibition of endometrial cancer cell growth (overall result, FIG. 1); conditions: at clinically relevant doses; results shown in FIG. 1
Method: as §1, §2, §3, §4

[4] = system: HEC-151 cells; assay: CellTiter-Glo viability/proliferation assay, growth of HEC-151 TP53 WT endometrial cancer cells; conditions: 144 h, 6-day incubation
Method: as §1, §2, §3, §4

[5] = read-out: Near complete growth inhibition (EC90)

CC(C)[C@@H](CS(=O)(=O)C(C)C)N1C(=O)[C@@](C)(CC(=O)O)C[C@H](c2cccc(Cl)c2)[C@H]1c1ccc(Cl)cc1 [Formula (I), 2-((3R,5R,6S)-5-(3-chlorophenyl)-6-(4-chlorophenyl)-1-((S)-1-(isopropylsulfonyl)-3-methylbutan-2-yl)-3-methyl-2-oxopiperidin-3-yl) acetic Acid]
EC50 ([1]; percent of DMSO control): 600 nM
EC90 [1, 5]: 700 nM
growth inhibition (200-point scale: 0 uninhibited growth, 100 cell stasis, 200 complete cell killing) ([2]; at 10 μM, 6-day exposure): only nearly reached cell stasis
cell killing sensitivity ([2]; compared with HEC-151 and HEC-265, 6-day exposure): less sensitive
growth inhibition [3]: growth inhibition by the compound of Formula (I) at clinically relevant doses
EC50 ([4]; percent of DMSO control): 400 nM
EC90 [4, 5]: 700 nM
